Where two headings read alike, the source gives them in different places.
Experiments:
[1] = Solubility test of tacrolimus by visual observation; assay type: physicochemical; conditions: aqueous nanoemulsion BF200 (at least 90% water content), aqueous with cosolvent or surfactant or cyclodextrin
Method: Tacrolimus was dissolved by mechanical techniques (stirring). Determination of a complete solution of substance was based on visual observation. A complete dissolution was defined as a clear solution with no signs of cloudiness or precipitation. The pure solvents were used as reference.
Samples were prepared as explained in Example D. The compound was dissolved in 10 mM Phosphate buffer (TC2) at defined concentration (see table below). For samples TC3, TC4 and TC5 the lipid phase (intermediate) of nanoemulsion BF200 was used as solvent. In a first step, Tacrolimus was dissolved in the lipid phase, followed by the preparation of the nanoemulsion by combining the aqueous phase with the lipid phase (containing Tacrolimus). Samples TC4 and TC5 were stored at 5° C. and 25° C. for a period of 6 months.

[2] = cited from earlier work
[3] = cited from earlier work; remark: listed apart in the source

C=CC[C@@H]1/C=C(\C)C[C@H](C)C[C@H](OC)[C@H]2O[C@@](O)(C(=O)C(=O)N3CCCC[C@H]3C(=O)O[C@H](/C(C)=C/[C@@H]3CC[C@@H](O)[C@H](OC)C3)[C@H](C)[C@@H](O)CC1=O)[C@H](C)C[C@@H]2OC [Tacrolimus]
solubility [1]: ≥ 2 mg/mL
logP [2]: > 3
Stability in aqueous formulations ([3]; 5° C., prior-art aqueous formulations (suspensions)): up to 9 months
Stability in aqueous formulations ([3]; room temperature, prior-art aqueous formulations (suspensions)): approx. 3 months
Stability in aqueous formulations ([3]; room temperature, prior-art aqueous formulations): approx. 90 days
